Experiments:
Format in all cases: functional, cell-based
D(1A) dopamine receptor [1] = molecular target: T1, D(1A) dopamine receptor (Homo sapiens, UniProt P21728); assay: Agonist activity at D1 receptor (unknown origin) expressed in CHOK1 cells assessed as increase in cAMP accumulation at 10 uM measured after 30 mins
D(2) dopamine receptor [2] = molecular target: T2, D(2) dopamine receptor (Homo sapiens, UniProt P14416); assay: Antagonist activity at D2 receptor (unknown origin) expressed in CHOK1 cells assessed as inhibition of dopamine-induced calcium flux preincubated for 60 mins at 37 degC followed by 15 mins incubation under room temperature and subsequent dopamine addition measured after 20 secs for 100 secs by calcium-4 dye based FLIPR assay
D(2) dopamine receptor [3] = molecular target: T2, D(2) dopamine receptor; assay: Agonist activity at D2 receptor (unknown origin) expressed in CHOK1 cells assessed as increase in calcium flux at 10 uM incubated for 60 mins at 37 degC followed by 15 mins incubation under room temperature measured after 20 secs for 100 secs by calcium-4 dye based FLIPR assay relative to control
D(1A) dopamine receptor [4] = molecular target: T1, D(1A) dopamine receptor; assay: Antagonist activity at D1 receptor (unknown origin) expressed in CHOK1 cells assessed as inhibition of SKF38393-induced cAMP accumulation measured after 30 mins

T1 sequence (P21728 whole entry): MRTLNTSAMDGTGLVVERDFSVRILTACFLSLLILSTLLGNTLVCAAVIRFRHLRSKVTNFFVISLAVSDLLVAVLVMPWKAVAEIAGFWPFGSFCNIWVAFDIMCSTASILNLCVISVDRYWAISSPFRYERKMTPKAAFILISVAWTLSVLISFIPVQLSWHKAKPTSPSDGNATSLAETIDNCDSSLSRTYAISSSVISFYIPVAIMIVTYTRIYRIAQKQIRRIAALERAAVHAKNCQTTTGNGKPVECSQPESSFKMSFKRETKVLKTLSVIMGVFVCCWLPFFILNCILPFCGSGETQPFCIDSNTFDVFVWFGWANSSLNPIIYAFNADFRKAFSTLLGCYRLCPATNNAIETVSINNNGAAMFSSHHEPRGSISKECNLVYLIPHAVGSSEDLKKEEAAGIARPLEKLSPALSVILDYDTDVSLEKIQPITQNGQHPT
T2 sequence (P14416 whole entry): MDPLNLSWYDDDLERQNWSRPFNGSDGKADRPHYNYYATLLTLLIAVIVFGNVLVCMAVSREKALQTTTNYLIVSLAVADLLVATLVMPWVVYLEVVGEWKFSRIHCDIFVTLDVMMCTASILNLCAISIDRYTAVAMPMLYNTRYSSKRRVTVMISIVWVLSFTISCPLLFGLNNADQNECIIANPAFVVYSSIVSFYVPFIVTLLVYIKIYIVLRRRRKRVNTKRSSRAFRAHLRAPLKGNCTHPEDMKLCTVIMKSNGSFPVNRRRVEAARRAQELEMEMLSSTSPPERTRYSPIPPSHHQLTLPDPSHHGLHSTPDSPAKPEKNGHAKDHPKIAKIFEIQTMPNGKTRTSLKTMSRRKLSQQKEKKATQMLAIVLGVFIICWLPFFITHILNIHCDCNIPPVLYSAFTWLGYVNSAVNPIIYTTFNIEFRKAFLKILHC

Oc1cccc2c1CC1c3cc4c(cc3CCN1C2)OCO4 (racemic)
Activity (D(1A) dopamine receptor [1]): 1.8%
IC50 (D(2) dopamine receptor [2]): 190 nM
Activity (D(2) dopamine receptor [3]): 2.22%
IC50 (D(1A) dopamine receptor [4]): 1030 nM

COc1ccc2c(c1O[C@@H]1O[C@H](CO)[C@@H](O)[C@H](O)[C@H]1O)CN1CCc3cc4c(cc3[C@H]1C2)OCO4
Activity (D(1A) dopamine receptor [1]): -7.46%
IC50 (D(2) dopamine receptor [2]): > 10000 nM
Activity (D(2) dopamine receptor [3]): 3.17%
IC50 (D(1A) dopamine receptor [4]): > 10000 nM

COc1cc2c(cc1OC)C1Cc3ccc(O)cc3CN1CC2 (racemic)
Activity (D(1A) dopamine receptor [1]): -3.91%
IC50 (D(2) dopamine receptor [2]): 1530 nM
Activity (D(2) dopamine receptor [3]): 2.39%
IC50 (D(1A) dopamine receptor [4]): 6510 nM

COc1cc2c(cc1OC)C1Cc3ccc(OC)c(O)c3CN1CC2 (racemic)
Activity (D(1A) dopamine receptor [1]): -4.32%
IC50 (D(2) dopamine receptor [2]): 3110 nM
Activity (D(2) dopamine receptor [3]): 5.52%
IC50 (D(1A) dopamine receptor [4]): 410 nM

COc1cc2c(cc1OC)[C@@H]1Cc3ccc(OC)c(OC)c3CN1CC2 [TETRAHYDROPALMATINE]
Activity (D(1A) dopamine receptor [1]): -7.43%
IC50 (D(2) dopamine receptor [2]): 450 nM
Activity (D(2) dopamine receptor [3]): 3.51%
IC50 (D(1A) dopamine receptor [4]): 1630 nM

COc1ccc2c(c1O)CN1CCc3cc(O)c(O)cc3C1C2 (racemic)
Activity (D(1A) dopamine receptor [1]): -5.41%
IC50 (D(2) dopamine receptor [2]): 76 nM
Activity (D(2) dopamine receptor [3]): 4.27%
IC50 (D(1A) dopamine receptor [4]): 390 nM

COc1cc2c(c(OC)c1O)CC1c3cc4c(cc3CCN1C2)OCO4 (racemic)
Activity (D(1A) dopamine receptor [1]): -5.75%
IC50 (D(2) dopamine receptor [2]): 1080 nM
Activity (D(2) dopamine receptor [3]): 1.29%
IC50 (D(1A) dopamine receptor [4]): 7420 nM

COc1cc2c(cc1O)CC1c3cc4c(cc3CCN1C2)OCO4 (racemic)
Activity (D(1A) dopamine receptor [1]): -3.7%
IC50 (D(2) dopamine receptor [2]): 4940 nM
Activity (D(2) dopamine receptor [3]): 3.81%
IC50 (D(1A) dopamine receptor [4]): > 10000 nM

c1ccc(COc2cccc3c2CC2c4cc5c(cc4CCN2C3)OCO5)cc1 (racemic)
Activity (D(1A) dopamine receptor [1]): 4.48%
IC50 (D(2) dopamine receptor [2]): > 10000 nM
Activity (D(2) dopamine receptor [3]): 2.5%
IC50 (D(1A) dopamine receptor [4]): > 10000 nM

COc1cc(/C=C/C(=O)Oc2c(OC)ccc3c2CN2CCc4cc5c(cc4C2C3)OCO5)ccc1OC(C)=O (racemic)
Activity (D(1A) dopamine receptor [1]): -3.69%
IC50 (D(2) dopamine receptor [2]): 7960 nM
Activity (D(2) dopamine receptor [3]): 2.97%
IC50 (D(1A) dopamine receptor [4]): > 10000 nM

COc1cc2c(cc1O)CC1c3cc(OC)c(OC)cc3CCN1C2 (racemic)
Activity (D(1A) dopamine receptor [1]): -5.16%
IC50 (D(2) dopamine receptor [2]): 2590 nM
Activity (D(2) dopamine receptor [3]): 3.35%
IC50 (D(1A) dopamine receptor [4]): 670 nM

COc1cc2c(cc1OC)C1Cc3c(cc(OC)c(O)c3OC)CN1CC2 (racemic)
Activity (D(1A) dopamine receptor [1]): -4.17%
IC50 (D(2) dopamine receptor [2]): 6360 nM
Activity (D(2) dopamine receptor [3]): 3.74%
IC50 (D(1A) dopamine receptor [4]): > 10000 nM

COc1ccc2c(c1OC(C)=O)CN1CCc3cc4c(cc3C1C2)OCO4 (racemic)
Activity (D(1A) dopamine receptor [1]): 0%
IC50 (D(2) dopamine receptor [2]): 420 nM
Activity (D(2) dopamine receptor [3]): 4.5%
IC50 (D(1A) dopamine receptor [4]): 1080 nM

COc1ccc2c(c1OC)CN1CCc3cc(O)c(O)cc3C1C2 (racemic)
Activity (D(1A) dopamine receptor [1]): -3.17%
IC50 (D(2) dopamine receptor [2]): 40 nM
Activity (D(2) dopamine receptor [3]): 2.53%
IC50 (D(1A) dopamine receptor [4]): 630 nM

Oc1ccc2c(c1)CN1CCc3cc4c(cc3C1C2)OCO4 (racemic)
Activity (D(1A) dopamine receptor [1]): -4.41%
IC50 (D(2) dopamine receptor [2]): 500 nM
Activity (D(2) dopamine receptor [3]): 2.17%
IC50 (D(1A) dopamine receptor [4]): 1420 nM

COc1cc2c(cc1OC)C1Cc3c(cc(O)c(OC)c3OC)CN1CC2 (racemic)
Activity (D(1A) dopamine receptor [1]): 5.95%
IC50 (D(2) dopamine receptor [2]): 8810 nM
Activity (D(2) dopamine receptor [3]): 6.88%
IC50 (D(1A) dopamine receptor [4]): > 10000 nM

COc1cc2c(cc1O)C1Cc3cc(OC)c(OC)cc3CN1CC2 (racemic)
Activity (D(1A) dopamine receptor [1]): 24.4%
IC50 (D(2) dopamine receptor [2]): 3580 nM
Activity (D(2) dopamine receptor [3]): 3.67%
IC50 (D(1A) dopamine receptor [4]): > 10000 nM

COc1ccc2c(c1O[C@@H]1O[C@H](CO)[C@@H](O)[C@H](O)[C@H]1O)CN1CCc3cc4c(cc3[C@@H]1C2)OCO4
Activity (D(1A) dopamine receptor [1]): -1.05%
IC50 (D(2) dopamine receptor [2]): > 10000 nM
Activity (D(2) dopamine receptor [3]): 2.96%
IC50 (D(1A) dopamine receptor [4]): > 10000 nM
